In article PMC10840383, “Clinical features, functional consequences, and rescue pharmacology of missense GRID1 and GRID2 human variants” (Human Molecular Genetics, 2023):
Changes are numbered by the printed parent chain. Entries after “also recorded” stand apart in the source; their conditions may differ. Read-outs that look alike come from different tables or passages of the source.

Columns and labels:
Assay type in all cases: cell-based
GluD1-A650T = molecular target: T1, GluD1-A650T (Homo sapiens, UniProt Q9ULK0, A650T); test: TEVC of constitutive current, Xenopus oocytes expressing GluD1-A650T; conditions: for EC50: modulation of constitutive current
T1 construct: expressed in transfected cells; host or cells: Xenopus laevis oocytes injected with cRNA
T1 sequence (Q9ULK0 21-1009 A650T): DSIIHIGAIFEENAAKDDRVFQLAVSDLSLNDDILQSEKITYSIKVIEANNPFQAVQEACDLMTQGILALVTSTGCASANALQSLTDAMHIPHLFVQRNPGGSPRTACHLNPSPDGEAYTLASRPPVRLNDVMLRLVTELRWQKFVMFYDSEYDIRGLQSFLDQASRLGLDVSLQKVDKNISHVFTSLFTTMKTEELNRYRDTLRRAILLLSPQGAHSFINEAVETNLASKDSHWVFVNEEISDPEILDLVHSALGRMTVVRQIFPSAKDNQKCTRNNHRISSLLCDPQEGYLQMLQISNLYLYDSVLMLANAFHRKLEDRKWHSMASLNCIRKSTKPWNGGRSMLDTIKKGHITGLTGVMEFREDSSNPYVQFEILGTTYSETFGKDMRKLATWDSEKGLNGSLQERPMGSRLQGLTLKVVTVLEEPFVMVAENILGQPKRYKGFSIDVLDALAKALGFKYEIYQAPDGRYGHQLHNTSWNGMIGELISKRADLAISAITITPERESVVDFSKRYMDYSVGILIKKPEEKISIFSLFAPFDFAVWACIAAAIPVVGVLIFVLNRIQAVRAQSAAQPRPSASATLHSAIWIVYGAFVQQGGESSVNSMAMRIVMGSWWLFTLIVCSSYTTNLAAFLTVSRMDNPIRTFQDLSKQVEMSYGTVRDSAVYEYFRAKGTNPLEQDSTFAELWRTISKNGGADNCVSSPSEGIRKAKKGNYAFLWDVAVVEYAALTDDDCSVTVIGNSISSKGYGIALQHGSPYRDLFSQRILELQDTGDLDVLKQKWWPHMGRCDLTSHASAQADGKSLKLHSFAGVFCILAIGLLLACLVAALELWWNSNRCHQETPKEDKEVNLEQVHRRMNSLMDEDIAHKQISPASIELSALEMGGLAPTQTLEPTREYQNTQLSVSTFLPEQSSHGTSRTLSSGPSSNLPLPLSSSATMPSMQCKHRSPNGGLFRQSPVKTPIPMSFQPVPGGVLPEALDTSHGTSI

GluD2-A654D = molecular target: T2, GluD2-A654D (Rattus norvegicus, UniProt Q63226, A654D); test: TEVC of constitutive current, Xenopus oocytes expressing GluD2-A654D
T2 construct: expressed in transfected cells; host or cells: Xenopus laevis oocytes injected with cRNA
T2 sequence (Q63226 24-1007 A654D): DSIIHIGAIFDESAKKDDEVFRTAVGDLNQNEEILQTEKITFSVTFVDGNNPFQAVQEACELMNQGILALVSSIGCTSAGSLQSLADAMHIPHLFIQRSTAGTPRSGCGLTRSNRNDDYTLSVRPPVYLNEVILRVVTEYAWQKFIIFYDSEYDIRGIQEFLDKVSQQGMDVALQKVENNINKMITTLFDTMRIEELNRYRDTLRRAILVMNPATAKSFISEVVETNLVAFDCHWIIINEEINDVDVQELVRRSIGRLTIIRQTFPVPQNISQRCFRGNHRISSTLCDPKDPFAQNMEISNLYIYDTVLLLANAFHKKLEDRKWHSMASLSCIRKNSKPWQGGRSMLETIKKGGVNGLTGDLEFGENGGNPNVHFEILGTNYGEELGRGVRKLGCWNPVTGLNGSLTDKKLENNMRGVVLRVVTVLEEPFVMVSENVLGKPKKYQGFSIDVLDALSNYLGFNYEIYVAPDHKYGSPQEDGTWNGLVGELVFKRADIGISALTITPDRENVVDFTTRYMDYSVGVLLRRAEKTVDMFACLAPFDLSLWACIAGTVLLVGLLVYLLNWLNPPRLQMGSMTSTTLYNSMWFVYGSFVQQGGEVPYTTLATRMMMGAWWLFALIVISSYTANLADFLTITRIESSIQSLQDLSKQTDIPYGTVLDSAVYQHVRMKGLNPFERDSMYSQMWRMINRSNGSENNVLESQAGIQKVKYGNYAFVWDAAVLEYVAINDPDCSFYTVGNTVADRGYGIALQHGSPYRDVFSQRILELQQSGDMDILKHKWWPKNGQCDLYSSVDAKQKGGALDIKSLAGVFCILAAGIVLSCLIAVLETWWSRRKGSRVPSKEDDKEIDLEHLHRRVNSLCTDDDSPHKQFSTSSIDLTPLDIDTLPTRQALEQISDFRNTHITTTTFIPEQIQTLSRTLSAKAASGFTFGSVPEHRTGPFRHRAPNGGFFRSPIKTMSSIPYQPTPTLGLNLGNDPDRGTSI

GluD2-A654T = molecular target: T3, GluD2-A654T (Rattus norvegicus, UniProt Q63226, A654T); test: TEVC of constitutive current, Xenopus oocytes expressing GluD2-A654T (lurcher)
T3 construct: expressed in transfected cells; host or cells: Xenopus laevis oocytes injected with cRNA
T3 sequence (Q63226 24-1007 A654T): T2 sequence (Q63226 24-1007 A654D) with D631T

[1] = normalized to NMDG+ − Na+ difference current
[2] = 10 mM D-serine, positive = increase, negative = decrease of activity
[3] = percent of constitutive leak current (NMDG+/Na+ difference current)
[4] = inhibition of constitutive current, read-out: Memantine IC50
[5] = 100 μM pentamidine, positive = increase, negative = decrease of activity

SMILES: [Ca+2] [Ca^2+]
- Effect on constitutive current, in words (GluD1-A650T): modestly inhibited
- EC50 (GluD1-A650T; inhibited by Ca2+ (not potentiated), read-out: Ca2+ EC50 [95% CI]): 290 µM
- Ca2+ % Max (NMDG+ − Na+) Mean ± SEM (GluD1-A650T; [1]): 65 ± 3 (10) %
- Effect on constitutive current, in words (GluD2-A654D): weak inhibitor; also recorded: modestly inhibited
- EC50 (GluD2-A654D; modulation of constitutive current, inhibited by Ca2+ (not potentiated), read-out: Ca2+ EC50 [95% CI]): 170 µM
- Ca2+ % Max (NMDG+ − Na+) Mean ± SEM (GluD2-A654D; [1]): 82 ± 10 (12) %
- Ca2+ EC50 A654T/EC50 variant (GluD2-A654D; ratio): 0.88
- Ca2+ EC50 of the relation Ca2+ concentration vs D-serine IC50 (GluD2-A654T; Hill fit, Fig. S7A): 590 µM
- Hill slope of the relation Ca2+ concentration vs D-serine IC50 (GluD2-A654T; Hill fit, Fig. S7A): 1.1
- Ca2+ % Max (NMDG+ − Na+) Mean ± SEM (GluD2-A654T; [1]): 299 ± 5.8 (32) %
- EC50 (GluD2-A654T; potentiation of constitutive current, read-out: Ca2+ EC50 [95% CI]): 150 µM
- Ca2+ EC50 A654T/EC50 variant (GluD2-A654T; ratio): 1.0

SMILES: N[C@H](CO)C(=O)O [D-serine]
- Effect on constitutive current, in words (GluD1-A650T): modestly potentiated; also recorded: slightly potentiated
- D-Serine effect (Baseline −10 mM D-Serine) (GluD1-A650T; [2]): 810 ± 130 (12) nA
- D-serine % Max (NMDG+ − Na+) Mean ± SEM (GluD1-A650T; [3]): 120 ± 1.8 (11) %
- EC50 (GluD1-A650T; read-out: D-serine EC50 [95% CI], potentiated by D-serine (not inhibited)): 130 µM
- Effect on constitutive current, in words (GluD2-A654D): little effect; also recorded: near complete loss of D-serine potency
- D-Serine effect (Baseline −10 mM D-Serine) (GluD2-A654D; [2]): −29 ± 10 (14) nA
- D-serine % Max (NMDG+ − Na+) Mean ± SEM (GluD2-A654D; [3]): 85 ± 2.6 (15) %
- D-serine Hill slope (GluD2-A654T; 1 mM Ca2+, Fig. S7B): 2.5
- D-serine Maximum (GluD2-A654T; 1 mM Ca2+, Fig. S7B): 73%
- Reduction of maximum possible activity (Na+ −NMDG+ difference current) by D-serine (GluD2-A654T; 10 mM D-serine): ~ 50%
- D-Serine effect (Baseline −10 mM D-Serine) (GluD2-A654T; [2]): −1000 ± 130 (14) nA
- D-serine % Max (NMDG+ − Na+) Mean ± SEM (GluD2-A654T; [3]): 51 ± 1.3 (32) %

SMILES: CC12CC3CC(C)(C1)CC(N)(C3)C2 [Memantine, memantine]
- IC50 (GluD1-A650T; [4]): > 300 µM
- IC50 (GluD2-A654D; [4]): 55 µM
- IC50 (GluD2-A654T; [4]): 89 µM

SMILES: N=C(N)c1ccc(OCCCCCOc2ccc(C(=N)N)cc2)cc1 [Pentamidine, pentamidine]
- Pentamidine effect (Baseline −100 μM Pentamidine) (GluD1-A650T; [5]): −1090 ± 200 (12) nA
- IC50 (GluD1-A650T; read-out: Pentamidine IC50): 20 µM
- Pentamidine effect (Baseline −100 μM Pentamidine) (GluD2-A654D; [5]): −700 ± 160 (14) nA
- IC50 (GluD2-A654D; read-out: Pentamidine IC50): 3.7 µM
- Pentamidine effect (Baseline −100 μM Pentamidine) (GluD2-A654T; [5]): −930 ± 130 (14) nA
- IC50 (GluD2-A654T; read-out: Pentamidine IC50): 9.6 µM
